Measured values taken from patent publication US11725012B2, “Imidazo[1,5-a]pyrazine derivatives as PI3K δ inhibitors” (priority 2016, dated 2023).
pIC50: −log10 of the molar value. Like-named read-outs stand apart in the source and are kept apart here.

Key:
Assay type in all cases: biochemical
PI3K (p110β/p85α) = PI3K (p110β/p85α) (Homo sapiens, UniProt P42338); assay: PI3Kβ ADP-Glo kinase assay
PI3K (p110γ) = PI3K (p110γ) (Homo sapiens, UniProt P48736); assay: PI3Kγ ADP-Glo kinase assay
[1] = target: recombinant PI3K (p110δ/p85α) (Homo sapiens, UniProt O00329); assay: PI3Kδ ADP-Glo kinase assay
Method: Compounds disclosed herein were tested for inhibition of PI3Kδ kinase activity using commercial ADP-Glo™ Kinase Assay (Promega Corporation) and following the manufacture's instruction. Briefly, recombinant PI3K (p110δ/p85α) enzyme, lipid kinase substrate and a serial dilution of compounds disclosed herein were incubated for 0.5 hr at room temperature. ATP was added to initiate the kinase reaction. After incubation for 1 hr at room temperature, ADP-Glo™ reagent was added to terminate the kinase reaction and deplete the remaining ATP. After incubation for 1 hr at room temperature, kinase detection reagent was added to simultaneously convert ADP to ATP and allow the newly synthesized ATP to be measured using a luciferase/luciferin reaction. After incubation for 0.5 hr at room temperature, the luminescence generated was measured on a PHERAstar FS plate reader (BMG LABTECH), The residual enzyme activity in presence of increasing concentrations of compounds was calculated based on the luminescence. The IC50 for each compound was derived from fitting the data to the four-parameter logistic equation by Graphpad Prism software.

[2] = target: recombinant PI3K (p110α/p85α) (Homo sapiens, UniProt P42336); assay: PI3Kα ADP-Glo kinase assay
[3] = read-out: PI3Kβ Enzyme activity IC50
[4] = read-out: PI3Kγ Enzyme activity IC50
[5] = read-out: PI3Kδ Enzyme activity IC50
[6] = read-out: PI3Kα Enzyme activity IC50

Chain of PI3K (p110β/p85α) (P42338 whole entry): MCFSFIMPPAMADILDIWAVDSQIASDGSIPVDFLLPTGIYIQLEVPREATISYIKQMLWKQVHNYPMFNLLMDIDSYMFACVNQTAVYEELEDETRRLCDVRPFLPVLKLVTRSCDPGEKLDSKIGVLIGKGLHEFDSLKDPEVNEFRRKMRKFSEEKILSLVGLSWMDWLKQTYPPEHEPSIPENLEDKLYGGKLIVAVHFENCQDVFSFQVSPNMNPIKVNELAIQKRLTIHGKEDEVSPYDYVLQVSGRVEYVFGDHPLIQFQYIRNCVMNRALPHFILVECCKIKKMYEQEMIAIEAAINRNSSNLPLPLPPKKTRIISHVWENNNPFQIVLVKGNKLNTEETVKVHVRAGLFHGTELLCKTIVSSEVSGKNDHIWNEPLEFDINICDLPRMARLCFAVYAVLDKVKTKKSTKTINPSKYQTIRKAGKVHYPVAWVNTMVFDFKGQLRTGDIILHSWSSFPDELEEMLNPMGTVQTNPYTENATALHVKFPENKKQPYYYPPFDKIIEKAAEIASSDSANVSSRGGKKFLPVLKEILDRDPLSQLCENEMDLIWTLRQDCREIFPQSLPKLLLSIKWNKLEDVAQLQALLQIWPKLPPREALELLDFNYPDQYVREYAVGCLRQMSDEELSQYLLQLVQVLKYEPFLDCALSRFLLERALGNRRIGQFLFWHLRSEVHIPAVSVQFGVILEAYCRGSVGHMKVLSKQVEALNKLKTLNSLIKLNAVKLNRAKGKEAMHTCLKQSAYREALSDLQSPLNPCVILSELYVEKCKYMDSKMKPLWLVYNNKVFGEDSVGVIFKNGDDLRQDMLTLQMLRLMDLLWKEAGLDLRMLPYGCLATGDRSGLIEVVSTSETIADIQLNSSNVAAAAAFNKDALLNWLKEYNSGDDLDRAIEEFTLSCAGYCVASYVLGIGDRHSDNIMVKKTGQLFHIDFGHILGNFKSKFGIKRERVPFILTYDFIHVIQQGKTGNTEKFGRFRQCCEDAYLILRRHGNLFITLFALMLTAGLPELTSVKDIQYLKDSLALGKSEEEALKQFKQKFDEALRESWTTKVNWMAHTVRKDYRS
Chain of PI3K (p110β/p85α) (P27986 whole entry partner): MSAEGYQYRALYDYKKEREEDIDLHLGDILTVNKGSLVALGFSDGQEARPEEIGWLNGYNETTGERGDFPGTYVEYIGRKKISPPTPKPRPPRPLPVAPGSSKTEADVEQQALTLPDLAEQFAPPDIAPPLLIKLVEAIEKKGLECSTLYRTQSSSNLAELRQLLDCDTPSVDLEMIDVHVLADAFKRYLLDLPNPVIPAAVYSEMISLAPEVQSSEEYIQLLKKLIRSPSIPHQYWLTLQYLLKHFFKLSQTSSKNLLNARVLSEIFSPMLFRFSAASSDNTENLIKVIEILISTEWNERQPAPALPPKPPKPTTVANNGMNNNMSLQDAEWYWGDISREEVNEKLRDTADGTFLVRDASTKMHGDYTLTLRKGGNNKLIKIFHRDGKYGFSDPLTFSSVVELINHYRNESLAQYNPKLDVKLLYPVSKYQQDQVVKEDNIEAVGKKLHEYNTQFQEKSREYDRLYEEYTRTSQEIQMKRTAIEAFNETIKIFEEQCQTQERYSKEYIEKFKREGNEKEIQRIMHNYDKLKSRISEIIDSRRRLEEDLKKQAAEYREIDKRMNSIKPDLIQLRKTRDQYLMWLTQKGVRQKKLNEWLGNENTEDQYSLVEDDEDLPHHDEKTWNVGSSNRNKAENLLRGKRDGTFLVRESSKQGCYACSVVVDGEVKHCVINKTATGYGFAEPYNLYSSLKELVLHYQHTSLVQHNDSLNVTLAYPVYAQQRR
Chain of PI3K (p110γ) (P48736 whole entry): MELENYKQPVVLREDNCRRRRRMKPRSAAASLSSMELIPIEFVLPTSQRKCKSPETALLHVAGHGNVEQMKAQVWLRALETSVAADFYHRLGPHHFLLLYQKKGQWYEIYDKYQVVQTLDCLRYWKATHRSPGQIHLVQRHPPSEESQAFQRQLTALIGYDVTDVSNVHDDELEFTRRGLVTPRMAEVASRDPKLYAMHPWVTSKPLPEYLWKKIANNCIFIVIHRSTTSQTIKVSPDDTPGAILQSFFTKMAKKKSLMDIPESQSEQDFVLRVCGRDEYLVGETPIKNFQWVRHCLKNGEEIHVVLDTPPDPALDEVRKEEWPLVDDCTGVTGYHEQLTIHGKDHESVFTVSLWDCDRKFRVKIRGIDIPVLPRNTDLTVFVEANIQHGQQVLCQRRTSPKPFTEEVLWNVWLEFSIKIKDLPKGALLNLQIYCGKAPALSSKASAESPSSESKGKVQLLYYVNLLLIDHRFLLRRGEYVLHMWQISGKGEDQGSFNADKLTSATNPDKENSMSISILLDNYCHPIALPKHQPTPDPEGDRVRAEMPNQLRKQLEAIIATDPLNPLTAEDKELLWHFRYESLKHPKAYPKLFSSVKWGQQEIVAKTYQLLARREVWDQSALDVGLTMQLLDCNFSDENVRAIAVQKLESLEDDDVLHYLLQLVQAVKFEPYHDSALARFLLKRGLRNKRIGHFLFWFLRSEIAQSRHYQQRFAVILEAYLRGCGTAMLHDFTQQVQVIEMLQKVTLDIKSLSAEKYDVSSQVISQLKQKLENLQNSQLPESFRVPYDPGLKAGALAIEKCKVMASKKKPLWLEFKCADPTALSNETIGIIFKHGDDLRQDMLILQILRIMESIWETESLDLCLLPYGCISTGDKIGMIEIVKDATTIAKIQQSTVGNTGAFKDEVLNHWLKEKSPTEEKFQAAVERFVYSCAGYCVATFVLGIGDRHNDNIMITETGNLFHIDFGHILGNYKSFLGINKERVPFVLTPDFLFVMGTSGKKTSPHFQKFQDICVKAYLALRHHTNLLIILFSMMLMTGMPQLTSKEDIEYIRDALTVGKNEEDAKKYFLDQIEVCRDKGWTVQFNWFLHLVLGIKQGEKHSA
Chain of recombinant PI3K (p110δ/p85α) (O00329 whole entry): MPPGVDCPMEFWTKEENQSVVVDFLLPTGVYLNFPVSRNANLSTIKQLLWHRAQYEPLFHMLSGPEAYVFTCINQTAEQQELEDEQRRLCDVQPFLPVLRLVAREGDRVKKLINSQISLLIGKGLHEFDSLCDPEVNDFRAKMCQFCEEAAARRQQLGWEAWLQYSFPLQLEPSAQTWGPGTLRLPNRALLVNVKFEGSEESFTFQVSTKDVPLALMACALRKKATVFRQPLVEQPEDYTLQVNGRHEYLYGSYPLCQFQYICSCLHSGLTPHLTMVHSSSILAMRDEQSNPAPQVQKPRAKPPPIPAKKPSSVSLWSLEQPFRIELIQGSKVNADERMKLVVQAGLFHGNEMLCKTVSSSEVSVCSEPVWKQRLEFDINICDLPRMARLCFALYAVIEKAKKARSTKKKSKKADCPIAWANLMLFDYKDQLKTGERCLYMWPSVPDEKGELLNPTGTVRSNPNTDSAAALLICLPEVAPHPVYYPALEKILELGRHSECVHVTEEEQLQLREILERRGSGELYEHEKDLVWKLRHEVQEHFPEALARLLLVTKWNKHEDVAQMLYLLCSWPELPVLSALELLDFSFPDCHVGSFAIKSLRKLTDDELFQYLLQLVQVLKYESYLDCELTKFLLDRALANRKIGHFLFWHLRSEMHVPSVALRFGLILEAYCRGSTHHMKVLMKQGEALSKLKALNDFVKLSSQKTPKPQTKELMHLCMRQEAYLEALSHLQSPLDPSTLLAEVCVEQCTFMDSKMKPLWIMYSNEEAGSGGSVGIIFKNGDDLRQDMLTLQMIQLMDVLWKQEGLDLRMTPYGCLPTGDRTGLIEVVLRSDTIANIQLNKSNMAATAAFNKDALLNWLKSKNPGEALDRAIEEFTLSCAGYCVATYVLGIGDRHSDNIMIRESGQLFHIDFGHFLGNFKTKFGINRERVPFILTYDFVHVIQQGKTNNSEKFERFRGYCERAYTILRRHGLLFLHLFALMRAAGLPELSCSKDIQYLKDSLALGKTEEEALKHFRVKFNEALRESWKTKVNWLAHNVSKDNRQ
Chain of recombinant PI3K (p110δ/p85α) (P27986 whole entry partner): as the sequence (P27986 whole entry partner) above
Chain of recombinant PI3K (p110α/p85α) (P42336 whole entry): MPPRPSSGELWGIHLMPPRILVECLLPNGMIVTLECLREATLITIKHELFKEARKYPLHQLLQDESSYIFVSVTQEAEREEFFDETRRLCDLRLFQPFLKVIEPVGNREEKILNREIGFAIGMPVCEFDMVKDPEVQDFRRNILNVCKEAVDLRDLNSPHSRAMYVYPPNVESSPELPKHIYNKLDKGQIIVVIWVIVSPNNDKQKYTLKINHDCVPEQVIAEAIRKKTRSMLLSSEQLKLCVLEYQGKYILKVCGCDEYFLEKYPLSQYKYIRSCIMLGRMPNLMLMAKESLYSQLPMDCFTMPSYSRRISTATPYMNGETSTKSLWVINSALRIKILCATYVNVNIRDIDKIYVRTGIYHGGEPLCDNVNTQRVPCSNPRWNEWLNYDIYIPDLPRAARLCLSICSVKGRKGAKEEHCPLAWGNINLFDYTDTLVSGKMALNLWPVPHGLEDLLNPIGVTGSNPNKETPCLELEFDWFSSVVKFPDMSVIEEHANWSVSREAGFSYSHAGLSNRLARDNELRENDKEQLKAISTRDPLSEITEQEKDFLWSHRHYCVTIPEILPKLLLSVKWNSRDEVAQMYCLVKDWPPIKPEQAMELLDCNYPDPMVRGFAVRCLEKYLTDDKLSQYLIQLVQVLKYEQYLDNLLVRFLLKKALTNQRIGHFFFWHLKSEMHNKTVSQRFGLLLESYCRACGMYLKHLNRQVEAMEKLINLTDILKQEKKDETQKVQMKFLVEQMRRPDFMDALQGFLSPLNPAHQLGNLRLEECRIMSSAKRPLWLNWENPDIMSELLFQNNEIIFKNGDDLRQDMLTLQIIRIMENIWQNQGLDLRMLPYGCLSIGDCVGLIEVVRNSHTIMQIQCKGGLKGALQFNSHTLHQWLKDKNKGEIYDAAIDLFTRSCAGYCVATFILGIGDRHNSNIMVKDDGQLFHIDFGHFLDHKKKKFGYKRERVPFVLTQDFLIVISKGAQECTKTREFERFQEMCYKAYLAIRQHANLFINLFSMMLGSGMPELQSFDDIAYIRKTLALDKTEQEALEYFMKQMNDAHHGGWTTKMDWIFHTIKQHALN
Chain of recombinant PI3K (p110α/p85α) (P27986 whole entry partner): as the sequence (P27986 whole entry partner) above

Structure (SMILES): CCOc1c(C(C)c2nc(Cl)c3c(N)nccn23)cc(Cl)c(C)c1N1CCOCC1 (single isomer, unassigned) [Compound 51A, 1-chloro-3-(1-(5-chloro-2-ethoxy-4-methyl-3-morpholinophenyl)ethyl)imidazo[1,5-a]pyrazin-8-amine]
- pIC50 (PI3K (p110β/p85α); [3]): 6.32
- pIC50 (PI3K (p110γ); [4]): 5.92
- pIC50 [1, 5]: 9.10
- pIC50 [2, 6]: 5.68

Structure (SMILES): Cc1nc(C(C)c2cc(Cl)c(F)c(-c3ccc(C#N)nc3)c2OC(C)C)n2ccnc(N)c12 (single isomer, unassigned) [Compound 59A, 5-(3-(1-(8-amino-1-methylimidazo[1,5-a]pyrazin-3-yl)ethyl)-5-chloro-6-fluoro-2-isopropoxyphenyl)picolinonitrile]
- pIC50 (PI3K (p110β/p85α); [3]): 5.85
- pIC50 (PI3K (p110γ); [4]): 5.57
- pIC50 [1, 5]: 8.92
- pIC50 [2, 6]: 5.20

Structure (SMILES): CCOc1c(C(C)c2nc(Cl)c3c(N)nccn23)cc(Cl)c(C)c1-c1ccc(C)nc1 (stereo not shown) [Compound 8, 1-chloro-3-(1-(5-chloro-2-ethoxy-4-methyl-3-(6-methylpyridin-3-yl)phenyl)ethyl) imidazo[1,5-a]pyrazin-8-amine]
- pIC50 (PI3K (p110β/p85α); [3]): 6.46
- pIC50 (PI3K (p110γ); [4]): 6.59
- pIC50 [1, 5]: 8.96
- pIC50 [2, 6]: 5.85

Structure (SMILES): CCOc1c([C@H](C)c2nc(Cl)c3c(N)nccn23)cc(Cl)c(C)c1-c1ccc(C)nc1 [Compound 8A]
- pIC50 (PI3K (p110β/p85α); [3]): 6.24
- pIC50 (PI3K (p110γ); [4]): 6.52
- pIC50 [1, 5]: 9.29
- pIC50 [2, 6]: 5.89

Structure (SMILES): CCOc1c(C(C)c2nc(-c3cccc(O)c3)c3c(N)nccn23)cc(Cl)c(C)c1-c1ccc(C(F)(F)F)nc1 (stereo not shown) [Compound 10, 3-(8-amino-3-(1-(5-chloro-2-ethoxy-4-methyl-3-(6-(trifluoromethyl)pyridin-3-yl)phenyl)ethyl)imidazo[1,5-a]pyrazin-1-yl)phenol]
- pIC50 (PI3K (p110β/p85α); [3]): 5.57
- pIC50 (PI3K (p110γ); [4]): 5.82
- pIC50 [1, 5]: 8.04
- pIC50 [2, 6]: 5.49

Structure (SMILES): CCOc1c([C@H](C)c2nc(Cl)c3c(N)nccn23)cc(Cl)c(C)c1-c1ccc(C(=O)N(C)C)nc1 [Compound 11, (S)-5-(3-(1-(8-amino-1-chloroimidazo[1,5-a]pyrazin-3-yl)ethyl)-5-chloro-2-ethoxy-6-methylphenyl)-N,N-dimethylpicolinamide]
- pIC50 (PI3K (p110β/p85α); [3]): 6.44
- pIC50 (PI3K (p110γ); [4]): 6.72
- pIC50 [1, 5]: 9.27
- pIC50 [2, 6]: 6.27

Structure (SMILES): CCOc1c([C@H](C)c2nc(Cl)c3c(N)nccn23)cc(Cl)c(C)c1-c1ccc(C(=O)O)nc1 [Compound 12]
- pIC50 (PI3K (p110β/p85α); [3]): 6.06
- pIC50 (PI3K (p110γ); [4]): 7.17
- pIC50 [1, 5]: 8.77
- pIC50 [2, 6]: 5.89

Structure (SMILES): CCOc1c(C(C)c2nc(Cl)c3c(N)nccn23)cc(Cl)c(F)c1-c1ccc(C(=O)N(C)C)nc1 (stereo not shown) [Compound 13, 5-(3-(1-(8-amino-1-chloroimidazo[1,5-a]pyrazin-3-yl)ethyl)-5-chloro-2-ethoxy-6-fluorophenyl)-N,N-dimethylpicolinamide]
- pIC50 (PI3K (p110β/p85α); [3]): 6.40
- pIC50 (PI3K (p110γ); [4]): 6.32
- pIC50 [1, 5]: 8.92
- pIC50 [2, 6]: 5.92

Structure (SMILES): CCOc1c(C(C)c2nc(Cl)c3c(N)nccn23)cc(Cl)c(C)c1-c1ccc(=O)[nH]c1 (stereo not shown) [Compound 15, 5-(3-(1-(8-amino-1-chloroimidazo[1,5-a]pyrazin-3-yl)ethyl)-5-chloro-2-ethoxy-6-methylphenyl)pyridin-2(1H)-one]
- pIC50 (PI3K (p110β/p85α); [3]): 6.49
- pIC50 (PI3K (p110γ); [4]): 6.49
- pIC50 [1, 5]: 8.92
- pIC50 [2, 6]: 6.08

Structure (SMILES): CC(C)Oc1c(C(C)c2nc(Cl)c3c(N)nccn23)cc(Cl)c(F)c1-c1ccc(C(N)=O)nc1 (stereo not shown) [Compound 17, 5-(3-(1-(8-amino-1-chloroimidazo[1,5-a]pyrazin-3-yl)ethyl)-5-chloro-6-fluoro-2-isopropoxyphenyl)picolinamide]
- pIC50 (PI3K (p110β/p85α); [3]): 5.80
- pIC50 (PI3K (p110γ); [4]): 5.72
- pIC50 [1, 5]: 8.82
- pIC50 [2, 6]: 5.51

Structure (SMILES): CC(C)Oc1c([C@H](C)c2nc(Cl)c3c(N)nccn23)cc(Cl)c(F)c1-c1ccc(C(N)=O)nc1 [Compound 17B]
- pIC50 (PI3K (p110β/p85α); [3]): 6.17
- pIC50 (PI3K (p110γ); [4]): 6.28
- pIC50 [1, 5]: 9.55
- pIC50 [2, 6]: 6.01

Structure (SMILES): CC(C)Oc1c(C(C)c2nc(Cl)c3c(N)nccn23)cc(Cl)c(F)c1-c1ccc(C(=O)O)nc1 (stereo not shown) [Compound 18, 5-(3-(1-(8-amino-1-chloroimidazo[1,5-a]pyrazin-3-yl)ethyl)-5-chloro-6-fluoro-2-isopropoxyphenyl)picolinic Acid]
- pIC50 (PI3K (p110β/p85α); [3]): 5.96
- pIC50 (PI3K (p110γ); [4]): 6.47
- pIC50 [1, 5]: 8.89
- pIC50 [2, 6]: 5.15

Structure (SMILES): CC(C)Oc1c([C@H](C)c2nc(Cl)c3c(N)nccn23)cc(Cl)c(F)c1-c1ccc(C(=O)O)nc1 [Compound 18A]
- pIC50 (PI3K (p110β/p85α); [3]): 6.72
- pIC50 (PI3K (p110γ); [4]): 6.80
- pIC50 [1, 5]: 9.25
- pIC50 [2, 6]: 5.34

Structure (SMILES): COc1c(C(C)c2nc(Br)c3c(N)nccn23)cc(Cl)c(C)c1-c1ccc(C)nc1 (stereo not shown) [Compound 19, 1-bromo-3-(1-(5-chloro-2-methoxy-4-methyl-3-(6-methylpyridin-3-yl)phenyl)ethyl) imidazo[1,5-a]pyrazin-8-amine]
- pIC50 (PI3K (p110β/p85α); PI3Kβ Enzyme activity IC50): 6.74
- pIC50 (PI3K (p110γ); PI3Kγ Enzyme activity IC50): 6.68
- pIC50 ([1]; PI3Kδ Enzyme activity IC50): 8.89
- pIC50 ([2]; PI3Kα Enzyme activity IC50): 6.24

Structure (SMILES): COc1ccc(-c2c(C)c(Cl)cc(C(C)c3nc(Br)c4c(N)nccn34)c2OC)cn1 (stereo not shown) [Compound 20, 1-bromo-3-(1-(5-chloro-2-methoxy-3-(6-methoxypyridin-3-yl)-4-methylphenyl)ethyl)imidazo[1,5-a]pyrazin-8-amine]
- pIC50 (PI3K (p110β/p85α); [3]): 6.03
- pIC50 (PI3K (p110γ); [4]): 6.13
- pIC50 [1, 5]: 8.49
- pIC50 [2, 6]: 5.64

Structure (SMILES): COc1c(C(C)c2nc(Br)c3c(N)nccn23)cc(Cl)c(C)c1-c1ccc(Cl)nc1 (stereo not shown) [Compound 22, 1-bromo-3-(1-(5-chloro-3-(6-chloropyridin-3-yl)-2-methoxy-4-methylphenyl)ethyl) imidazo[1,5-a]pyrazin-8-amine]
- pIC50 (PI3K (p110β/p85α); [3]): 6.41
- pIC50 (PI3K (p110γ); [4]): 6.12
- pIC50 [1, 5]: 8.82
- pIC50 [2, 6]: 5.85

Structure (SMILES): COc1c(C(C)c2nc(Br)c3c(N)nccn23)cc(Cl)c(C)c1-c1ccc(N2CCOCC2)nc1 (stereo not shown) [Compound 23, 1-bromo-3-(1-(5-chloro-2-methoxy-4-methyl-3-(6-morpholinopyridin-3-yl)phenyl)ethyl)imidazo[1,5-a]pyrazin-8-amine]
- inhibition at 0.5 µM (PI3K (p110β/p85α); read-out: PI3Kβ max inhibition (%) at 0.5 μM): 12%
- inhibition at 0.5 µM (PI3K (p110γ); read-out: PI3Kγ max inhibition (%) at 0.5 μM): -19%
- pIC50 [1, 5]: 7.82
- inhibition at 0.5 µM ([2]; read-out: PI3Kα max inhibition (%) at 0.5 μM): 16%

Structure (SMILES): CCOc1c(C(C)c2nc(Br)c3c(N)nccn23)cc(Cl)c(C)c1-c1ccc(C(F)(F)F)nc1 (stereo not shown) [Compound 24, 1-bromo-3-(1-(5-chloro-2-ethoxy-4-methyl-3-(6-(trifluoromethyl)pyridin-3-yl)phenyl)ethyl)imidazo[1,5-a]pyrazin-8-amine]
- pIC50 (PI3K (p110β/p85α); [3]): 5.80
- pIC50 (PI3K (p110γ); [4]): 5.68
- pIC50 [1, 5]: 8.54
- pIC50 [2, 6]: 5.40

Structure (SMILES): CCOc1c(C(C)c2nc(Cl)c3c(N)nccn23)cc(Cl)c(C)c1-c1ccc(C(F)(F)F)nc1 (stereo not shown) [Compound 25, 1-chloro-3-(1-(5-chloro-2-ethoxy-4-methyl-3-(6-(trifluoromethyl)pyridin-3-yl)phenyl)ethyl)imidazo[1,5-a]pyrazin-8-amine]
- pIC50 (PI3K (p110β/p85α); [3]): 5.59
- pIC50 (PI3K (p110γ); [4]): 5.85
- pIC50 [1, 5]: 8.59
- pIC50 [2, 6]: 5.52

Structure (SMILES): CCOc1c(C(C)c2nc(Br)c3c(N)nccn23)cc(Cl)c(C)c1-c1ccc(Cl)nc1 (stereo not shown) [Compound 26, 1-bromo-3-(1-(5-chloro-3-(6-chloropyridin-3-yl)-2-ethoxy-4-methylphenyl)ethyl) imidazo[1,5-a]pyrazin-8-amine]
- pIC50 (PI3K (p110β/p85α); [3]): 6.48
- pIC50 (PI3K (p110γ); [4]): 6.30
- pIC50 [1, 5]: 8.85
- pIC50 [2, 6]: 5.82

Structure (SMILES): CCOc1c(C(C)c2nc(Cl)c3c(N)nccn23)cc(Cl)c(C)c1-c1ccc(Cl)nc1 (stereo not shown) [Compound 27, 1-chloro-3-(1-(5-chloro-3-(6-chloropyridin-3-yl)-2-ethoxy-4-methylphenyl)ethyl)imidazo[1,5-a]pyrazin-8-amine]
- pIC50 (PI3K (p110β/p85α); [3]): 5.74
- pIC50 (PI3K (p110γ); [4]): 5.85
- pIC50 [1, 5]: 8.60
- pIC50 [2, 6]: 5.48

Structure (SMILES): CCOc1c([C@H](C)c2nc(Cl)c3c(N)nccn23)cc(Cl)c(C)c1-c1ccc(Cl)nc1 [Compound 27A]
- pIC50 (PI3K (p110β/p85α); [3]): 6.40
- pIC50 (PI3K (p110γ); [4]): 6.00
- pIC50 [1, 5]: 8.96
- pIC50 [2, 6]: 5.66

Structure (SMILES): CCOc1c(C(C)c2nc(Br)c3c(N)nccn23)cc(Cl)c(C)c1-c1ccc(OC)nc1 (stereo not drawn) [Compound 28, 1-bromo-3-(l-(5-chloro-2-ethoxy-3-(6-methoxypyridin-3-yl)-4-methylphenyl)ethyl)imidazo[1,5-a]pyrazin-8-amine]
- pIC50 (PI3K (p110β/p85α); PI3Kβ Enzyme activity IC50): 6.03
- pIC50 (PI3K (p110γ); PI3Kγ Enzyme activity IC50): 6.13
- pIC50 ([1]; PI3Kδ Enzyme activity IC50): 8.49
- pIC50 ([2]; PI3Kα Enzyme activity IC50): 5.64

Structure (SMILES): CCOc1c(C(C)c2nc(Cl)c3c(N)nccn23)cc(Cl)c(C)c1-c1ccc(OC)nc1 (stereo not shown) [Compound 29, 1-chloro-3-(1-(5-chloro-2-ethoxy-3-(6-methoxypyridin-3-yl)-4-methylphenyl)ethyl)imidazo[1,5-a]pyrazin-8-amine]
- pIC50 (PI3K (p110β/p85α); [3]): 6.09
- pIC50 (PI3K (p110γ); [4]): 5.96
- pIC50 [1, 5]: 8.68
- pIC50 [2, 6]: 5.54

Structure (SMILES): CCOc1c(C(C)c2nc(Br)c3c(N)nccn23)cc(Cl)c(C)c1-c1ccc(OCCOC)nc1 (stereo not shown) [Compound 30, 1-bromo-3-(1-(5-chloro-2-ethoxy-3-(6-(2-methoxyethoxy)pyridin-3-yl)-4-methylphenyl)ethyl)imidazo[1,5-a]pyrazin-8-amine]
- pIC50 (PI3K (p110β/p85α); [3]): 6.28
- pIC50 (PI3K (p110γ); [4]): 6.35
- pIC50 [1, 5]: 8.64
- pIC50 [2, 6]: 5.74
